DC50 data for 20 molecules are collected here from patent US20240101540A1, “TARGETED PROTEIN DEGRADATION OF PARP14 FOR USE IN THERAPY” (Ribon Therapeutics, Inc., priority 2022, published 2024).

Molecules are shown by their SMILES. Counter-ions that a name gives are not always drawn.

T1 sequence (Q460N5 whole entry): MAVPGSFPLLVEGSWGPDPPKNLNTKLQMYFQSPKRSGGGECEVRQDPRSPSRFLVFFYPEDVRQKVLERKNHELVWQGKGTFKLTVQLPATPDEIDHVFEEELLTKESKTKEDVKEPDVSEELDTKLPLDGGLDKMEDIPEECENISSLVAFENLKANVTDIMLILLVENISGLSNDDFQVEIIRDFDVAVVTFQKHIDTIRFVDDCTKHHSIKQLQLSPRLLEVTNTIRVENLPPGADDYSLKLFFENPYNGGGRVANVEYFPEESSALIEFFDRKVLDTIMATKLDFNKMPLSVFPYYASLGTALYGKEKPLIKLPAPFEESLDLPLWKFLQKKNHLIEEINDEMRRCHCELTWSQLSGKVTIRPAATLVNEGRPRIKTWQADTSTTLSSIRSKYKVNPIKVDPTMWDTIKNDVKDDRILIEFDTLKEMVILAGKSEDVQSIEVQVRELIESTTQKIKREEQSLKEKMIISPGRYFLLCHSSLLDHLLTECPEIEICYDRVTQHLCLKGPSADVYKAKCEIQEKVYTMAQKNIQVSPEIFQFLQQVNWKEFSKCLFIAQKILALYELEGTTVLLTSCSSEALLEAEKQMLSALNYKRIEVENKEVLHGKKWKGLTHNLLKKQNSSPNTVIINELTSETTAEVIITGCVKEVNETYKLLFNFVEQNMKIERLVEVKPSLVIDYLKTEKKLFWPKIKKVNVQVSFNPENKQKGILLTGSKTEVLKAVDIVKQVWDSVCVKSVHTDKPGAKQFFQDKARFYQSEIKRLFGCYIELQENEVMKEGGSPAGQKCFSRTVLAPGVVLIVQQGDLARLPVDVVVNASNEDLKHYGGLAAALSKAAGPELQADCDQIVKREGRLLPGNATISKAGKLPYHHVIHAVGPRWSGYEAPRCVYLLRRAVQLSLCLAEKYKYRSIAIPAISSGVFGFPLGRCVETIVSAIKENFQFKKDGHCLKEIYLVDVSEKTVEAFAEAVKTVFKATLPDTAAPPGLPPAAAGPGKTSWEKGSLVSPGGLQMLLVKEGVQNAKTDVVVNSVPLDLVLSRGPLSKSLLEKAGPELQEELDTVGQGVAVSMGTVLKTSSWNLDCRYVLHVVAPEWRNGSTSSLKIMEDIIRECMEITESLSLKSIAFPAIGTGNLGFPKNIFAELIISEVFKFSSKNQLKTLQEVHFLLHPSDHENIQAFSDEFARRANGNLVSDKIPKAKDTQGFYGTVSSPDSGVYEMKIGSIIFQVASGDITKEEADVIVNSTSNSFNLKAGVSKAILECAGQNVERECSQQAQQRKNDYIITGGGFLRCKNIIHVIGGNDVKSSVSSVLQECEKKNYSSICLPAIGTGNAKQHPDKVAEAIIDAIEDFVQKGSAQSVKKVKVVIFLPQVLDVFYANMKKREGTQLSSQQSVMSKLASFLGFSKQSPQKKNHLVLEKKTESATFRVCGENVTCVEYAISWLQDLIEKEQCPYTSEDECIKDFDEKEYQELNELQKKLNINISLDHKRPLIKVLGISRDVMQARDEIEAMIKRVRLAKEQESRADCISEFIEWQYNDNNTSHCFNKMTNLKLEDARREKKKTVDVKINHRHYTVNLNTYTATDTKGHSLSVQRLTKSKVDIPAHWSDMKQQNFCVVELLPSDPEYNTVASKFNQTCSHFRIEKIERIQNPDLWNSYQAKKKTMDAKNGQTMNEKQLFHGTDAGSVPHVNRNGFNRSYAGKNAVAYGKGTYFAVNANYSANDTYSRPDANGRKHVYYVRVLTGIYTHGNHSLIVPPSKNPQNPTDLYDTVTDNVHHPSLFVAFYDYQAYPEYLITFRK

The first assay concerns the target T1, HiBiT tagged PARP14 (Homo sapiens, UniProt Q460N5).
T1 construct: engineered to contain a HiBiT tag on both alleles of the PARP14 gene; endogenous in cells; host or cells: Jurkat cells stably transfected with LgBiT (Promega), PARP14 locus edited by CRISPR/Cas9
The experiment in a line: HiBiT assay for the degradation of PARP14 (HiBiT tagged PARP14 in LgBiT expressing Jurkat cells, 2 or 24 hours). It counts as cell-based. The conditions noted are these: Assay B (Example B): HiBiT tagged PARP14 degradation in LgBiT expressing Jurkat cells. The protocol:
Jurkat cells stably transfected with LgBiT (Promega) were engineered to contain a HiBiT tag on both alleles of the PARP14 gene (Genbank Accession Number: NM_017554) via CRISPR/Cas9 editing. The HiBiT tag is an 11 amino acid tag created by Promega that associates with LgBiT protein to form the NanoLuc® tag on the C-terminus of PARP14. Clones were isolated and confirmed for the HiBiT tag via Sanger sequencing.
Degradation of PARP14 protein was assessed by measuring the luminescence of the HiBiT tag associating with the LgBiT protein as a proxy for the PARP14 protein.
Jurkat cells were diluted to 250,000 cells per mL and then added to assay plate (Corning 3574) using a Multidrop (Thermo Fisher) to add 20 μL per well of the 384 well plate, resulting in 5,000 cells per well. 20 nL of a dose response curve diluted in DMSO of each test compound was added to the cell plate using a Mosquito (TTP Labtech) and the plate was incubated at 37° C. for 2 or 24 hours. Assay plate was brought to room temperature then 5 μL per well of Live Cell Substrate (Promega) was added to the plate. Luminescence was measured on an Envision (Perkin Elmer).
The average DMSO was calculated from 32 wells containing 0.1% DMSO only in columns 12 and 24 of the assay plate. The % of DMSO values were calculated as described below: […]
The % of DMSO values were plotted as a function of compound concentration and the following 4-parameter fit was applied to derive the DC50 values:
where top, bottom, and Hill Coefficient are allowed to float. Y is the % of DMSO and X is the compound concentration.
DC50 data for the Example compounds is provided below in Table 2 (“+” is ≤0.03 μM; “++” is ≥0.03 μM).
On the technique in general: The HiBiT peptide binds its large partner to form an active luciferase.
The molecule `O=C1CCC(Nc2ccc(N3CCN(CCN4CCC(COc5cc(F)c6c(=O)[nH]c(COC7CCOCC7)nc6c5)CC4)CC3)c(F)c2)C(=O)N1` (racemic) [Example 99, 3-((3-fluoro-4-(4-(2-(4-(((5-fluoro-4-oxo-2-(((tetrahydro-2H-pyran-4-yl)oxy)methyl)-3,4-dihydroquinazolin-7-yl)oxy)methyl)piperidin-1-yl)ethyl)piperazin-1-yl)phenyl)amino)piperidine-2,6-dione] yielded a 50% degradation concentration (DC50) of less than 30 nM.

The assay is the same for the next values; noted with them: Assay B (Example B): HiBiT tagged PARP14 degradation in LgBiT expressing Jurkat cells, read-out: DC50.
For `O=C1CCC(Nc2ccc(N3CCC(N4CC(CN5CCC(COc6cc(F)c7c(=O)[nH]c(CSC8CCOCC8)nc7c6)CC5)C4)CC3)c(F)c2)C(=O)N1` (centres unmarked) [Example 232, 3-((3-fluoro-4-(4-(3-((4-(((5-fluoro-4-oxo-2-(((tetrahydro-2H-pyran-4-yl)thio)methyl)-3,4-dihydroquinazolin-7-yl)oxy)methyl)piperidin-1-yl)methyl)azetidin-1-yl)piperidin-1-yl)phenyl)amino)piperidine-2,6-dione], the 50% degradation concentration (DC50) was less than 30 nM.

Turning to `O=C1CCC(Nc2ccc(N3CCC(N4CCC(CN5CCC(COc6cc(F)c7c(=O)[nH]c(CSC8CCOCC8)nc7c6)CC5)CC4)CC3)c(F)c2)C(=O)N1` (centres unmarked) [Example 224, 3-((3-fluoro-4-(4-((4-(((5-fluoro-4-oxo-2-(((tetrahydro-2H-pyran-4-yl)thio)methyl)-3,4-dihydroquinazolin-7-yl)oxy)methyl)piperidin-1-yl)methyl)-[1,4′-bipiperidin]-1′-yl)phenyl)amino)piperidine-2,6-dione], the DC50 was less than 30 nM.

With `O=C1CCC(Nc2ccc(C(=O)N3CCN(CCN4CCC(COc5cc(F)c6c(=O)[nH]c(CSC7CCOCC7)nc6c5)CC4)CC3)cc2)C(=O)N1` (centres unmarked) [Example 188, 3-((4-(4-(2-(4-(((5-fluoro-4-oxo-2-(((tetrahydro-2H-pyran-4-yl)thio)methyl)-3,4-dihydroquinazolin-7-yl)oxy)methyl)piperidin-1-yl)ethyl)piperazine-1-carbonyl)phenyl)amino)piperidine-2,6-dione], the DC50 is less than 30 nM.

For `O=C1CCC(Nc2ccc(N3CCC(N4CCN(CCOc5cc(F)c6c(=O)[nH]c(CSC7CCOCC7)nc6c5)CC4)CC3)cc2)C(=O)N1` (centres unmarked) [Example 125], the half-maximal degradation concentration (DC50) is less than 30 nM.

In the case of `O=C1CCN(c2ccc(F)c(N3CCC(N4CC(N5CCC(COc6cc(F)c7c(=O)[nH]c(CSC8CCOCC8)nc7c6)CC5)C4)CC3)c2)C(=O)N1` [Example 165, 1-(4-fluoro-3-(4-(3-(4-(((5-fluoro-4-oxo-2-(((tetrahydro-2H-pyran-4-yl)thio)methyl)-3,4-dihydroquinazolin-7-yl)oxy)methyl)piperidin-1-yl)azetidin-1-yl)piperidin-1-yl)phenyl)dihydropyrimidine-2,4(1H,3H)-dione], the DC50 is less than 30 nM.

As for `O=C1CCC(Nc2ccc(N3CC(N4CCC(CCOc5cc(F)c6c(=O)[nH]c(CSC7CCOCC7)nc6c5)CC4)C3)cc2)C(=O)N1` (centres unmarked) [Example 127, 3-((4-(3-(4-(2-((5-fluoro-4-oxo-2-(((tetrahydro-2H-pyran-4-yl)thio)methyl)-3,4-dihydroquinazolin-7-yl)oxy)ethyl)piperidin-1-yl)azetidin-1-yl)phenyl)amino)piperidine-2,6-dione], the DC50 is less than 30 nM.

Turning to `O=C1CCC(Nc2ccc(N3CCN(CCN4CC(COc5cc(F)c6c(=O)[nH]c(CSC7CCOCC7)nc6c5)C4)CC3)c(F)c2)C(=O)N1` (centres unmarked) [Example 193, 3-((3-fluoro-4-(4-(2-(3-(((5-fluoro-4-oxo-2-(((tetrahydro-2H-pyran-4-yl)thio)methyl)-3,4-dihydroquinazolin-7-yl)oxy)methyl)azetidin-1-yl)ethyl)piperazin-1-yl)phenyl)amino)piperidine-2,6-dione], the 50% degradation concentration (DC50) is less than 30 nM.

Consider `Cn1nc(N2CCC(=O)NC2=O)c2ccc(N3CCC(CN4CCC(COc5cc(F)c6c(=O)[nH]c(CSC7CCOCC7)nc6c5)CC4)CC3)cc21` [Example 181, 1-(6-(4-((4-(((5-fluoro-4-oxo-2-(((tetrahydro-2H-pyran-4-yl)thio)methyl)-3,4-dihydroquinazolin-7-yl)oxy)methyl)piperidin-1-yl)methyl)piperidin-1-yl)-1-methyl-1H-indazol-3-yl)dihydropyrimidine-2,4(1H,3H)-dione], for which the DC50 was less than 30 nM.

On to `O=C1CCC(Nc2ccc(N3CCC(N4CCC(N5CCC(COc6cc(F)c7c(=O)[nH]c(CSC8CCOCC8)nc7c6)CC5=O)CC4)CC3)c(F)c2)C(=O)N1` (centres unmarked) [Example 214, 3-((3-fluoro-4-(4-(((5-fluoro-4-oxo-2-(((tetrahydro-2H-pyran-4-yl)thio)methyl)-3,4-dihydroquinazolin-7-yl)oxy)methyl)-2-oxo-[1,4′:1′,4″-terpiperidin]-1″-yl)phenyl)amino)piperidine-2,6-dione formate], for which the 50% degradation concentration (DC50) is less than 30 nM.

In the case of `O=C1CCC(Nc2ccc(N3CCC(N4CC(N5CCC(COc6cc(F)c7c(=O)[nH]c(CSC8CCOCC8)nc7c6)CC5)C4)CC3)c(F)c2)C(=O)N1` (single isomer, unassigned) [Example 116b, 3-((3-fluoro-4-(4-(3-(4-(((5-fluoro-4-oxo-2-(((tetrahydro-2H-pyran-4-yl)thio)methyl)-3,4-dihydroquinazolin-7-yl)oxy)methyl)piperidin-1-yl)azetidin-1-yl)piperidin-1-yl)phenyl)amino)piperidine-2,6-dione], the DC50 was less than 30 nM.

Consider `O=C1CCC(Nc2ccc(N3CCC(N4CCC(COc5cc(F)c6c(=O)[nH]c(CSC7CCOCC7)nc6c5)CC4)CC3)c(F)c2)C(=O)N1` (centres unmarked) [Example 113], for which the DC50 was less than 30 nM.

Take `O=C1CCC(Nc2ccc(N3CCN(CCN4CCC(COc5cc(F)c6c(=O)[nH]c(COC7CCOCC7)nc6c5)CC4)CC3)cc2F)C(=O)N1` (centres unmarked) [Example 192, 3-((2-fluoro-4-(4-(2-(4-(((5-fluoro-4-oxo-2-(((tetrahydro-2H-pyran-4-yl)oxy)methyl)-3,4-dihydroquinazolin-7-yl)oxy)methyl)piperidin-1-yl)ethyl)piperazin-1-yl)phenyl)amino)piperidine-2,6-dione diformate]: the 50% degradation concentration (DC50) is less than 30 nM.

`O=C1CCC(Nc2cc(F)c(N3CCN(CCN4CCC(COc5cc(F)c6c(=O)[nH]c(CSC7CCOCC7)nc6c5)CC4)CC3)cc2F)C(=O)N1` (centres unmarked) [Example 141]: the DC50 is less than 30 nM.

As for `O=C1CCC(Nc2ccc(N3CCC(N4CC(N5CCC(COc6cc(F)c7c(=O)[nH]c(COC8CCOCC8)nc7c6)CC5)C4)CC3)c(F)c2)C(=O)N1` (centres unmarked) [Example 136, 3-((3-fluoro-4-(4-(3-(4-(((5-fluoro-4-oxo-2-(((tetrahydro-2H-pyran-4-yl)oxy)methyl)-3,4-dihydroquinazolin-7-yl)oxy)methyl)piperidin-1-yl)azetidin-1-yl)piperidin-1-yl)phenyl)amino)piperidine-2,6-dione], the DC50 was less than 30 nM.

For `O=C1CCC(Nc2ccc(N3CCN(C(=O)CN4CCC(COc5cc(F)c6c(=O)[nH]c(CSC7CCOCC7)nc6c5)CC4)CC3)c(F)c2)C(=O)N1` (centres unmarked) [Example 189, 3-((3-fluoro-4-(4-(2-(4-(((5-fluoro-4-oxo-2-(((tetrahydro-2H-pyran-4-yl)thio)methyl)-3,4-dihydroquinazolin-7-yl)oxy)methyl)piperidin-1-yl)acetyl)piperazin-1-yl)phenyl)amino)piperidine-2,6-dione], the 50% degradation concentration (DC50) was less than 30 nM.

As to `Cn1nc(N2CCC(=O)NC2=O)c2ccc(N3CCC(N4CCC(COc5cc(F)c6c(=O)[nH]c(COC7CCOCC7)nc6c5)CC4)CC3)c(F)c21` [Example 159, 1-(7-fluoro-6-(4-(((5-fluoro-4-oxo-2-(((tetrahydro-2H-pyran-4-yl)oxy)methyl)-3,4-dihydroquinazolin-7-yl)oxy)methyl)-[1,4′-bipiperidin]-1′-yl)-1-methyl-1H-indazol-3-yl)dihydropyrimidine-2,4(1H,3H)-dione formate], the DC50 is less than 30 nM.

As to `O=C1CCC(N2C(=O)c3ccc(N4CCC(N5CCC(COc6cc(F)c7c(=O)[nH]c(CSC8CCOCC8)nc7c6)CC5)CC4)cc3C2=O)C(=O)N1` (centres unmarked) [Example 190, 2-(2,6-dioxopiperidin-3-yl)-5-(4-(((5-fluoro-4-oxo-2-(((tetrahydro-2H-pyran-4-yl)thio)methyl)-3,4-dihydroquinazolin-7-yl)oxy)methyl)-[1,4′-bipiperidin]-1′-yl)isoindoline-1,3-dione], the DC50 was less than 30 nM.

In the case of `O=C1CCC(Nc2ccc(N3CCC(N4CC(N5CCC(COc6cc(F)c7c(=O)[nH]c(CSC8CCOCC8)nc7c6)CC5)C4)CC3)c(Cl)c2)C(=O)N1` (centres unmarked) [Example 142], the DC50 is less than 30 nM.

Regarding `O=C1CCC(Nc2ccc(N3CCC(C(=O)N4CCC(N5CCC(COc6cc(F)c7c(=O)[nH]c(CSC8CCOCC8)nc7c6)CC5)C4)CC3)c(F)c2)C(=O)N1` (centres unmarked) [Example 176, 3-((3-fluoro-4-(4-(3-(4-(((5-fluoro-4-oxo-2-(((tetrahydro-2H-pyran-4-yl)thio)methyl)-3,4-dihydroquinazolin-7-yl)oxy)methyl)piperidin-1-yl)pyrrolidine-1-carbonyl)piperidin-1-yl)phenyl)amino)piperidine-2,6-dione], the DC50 was less than 30 nM.

One may read the DC50 as the concentration giving 50% degradation.
